The source of these data is patent US20230373937A1, “INHIBITORS OF SPINSTER HOMOLOG 2 (SPNS2) FOR USE IN THERAPY” (University of Virginia Patent Foundation, priority 2020, published 2023).

This experiment has as its target T1, SPNS2 (Mus musculus, UniProt Q91VM4).
T1 construct: expressed in transfected cells; host or cells: HeLa or U937 cells
T1 sequence (Q91VM4 1-549): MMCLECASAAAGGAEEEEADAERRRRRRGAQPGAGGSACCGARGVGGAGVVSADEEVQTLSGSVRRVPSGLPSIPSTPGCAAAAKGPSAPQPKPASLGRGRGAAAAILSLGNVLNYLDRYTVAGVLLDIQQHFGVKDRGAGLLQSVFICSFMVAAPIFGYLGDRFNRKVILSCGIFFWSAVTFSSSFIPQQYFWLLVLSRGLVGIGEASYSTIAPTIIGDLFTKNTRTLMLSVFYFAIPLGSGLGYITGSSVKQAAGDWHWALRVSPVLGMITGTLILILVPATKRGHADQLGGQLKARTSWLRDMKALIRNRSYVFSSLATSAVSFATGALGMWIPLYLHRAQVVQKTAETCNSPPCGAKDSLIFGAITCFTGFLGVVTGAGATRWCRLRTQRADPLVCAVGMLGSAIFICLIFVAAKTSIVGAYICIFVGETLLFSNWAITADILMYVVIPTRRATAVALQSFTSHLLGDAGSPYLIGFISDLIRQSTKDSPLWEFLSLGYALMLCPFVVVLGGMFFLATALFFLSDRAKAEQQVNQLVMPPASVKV
In words: S1P transporter assay: S1P release from whole cells expressing SPNS2. Format: cell-based. The conditions noted are these: HeLa or U937 cells expressing mouse SPNS2; 18 hours; S1P in media measured by LC-MS; read-out: IC50 (in vitro inhibition against SPNS2). The protocol: Transporter assays are vectorial and therefore require measurement of the transported analyte in different compartments. The S1P transporter SPNS2 only exports S1P, which obviates measuring uptake of S1P into transporter-expressing cells. Thus, transporter activity was determined by quantifying S1P release from whole cells expressing SPNS2. SPNS2 inhibitor potency was assessed using whole cell assays. HeLa or U937 cells expressing mouse SPNS2 were used to determine inhibitor potency (IC50). Cells were plated onto 12 well plates and assayed when the cell monolayers became confluent. Cell growth media (RPMI-1640 containing 10% fetal bovine serum) was replaced with 2 mL of serum-free media (RPMI-1640) containing fatty acid free bovine serum albumin (BSA) (0.2% w/v) and supplemented with 4-deoxypyridoxine (DOP) (1 mM), NaF (2 mM), Na3VO4 (0.2 mM) to inhibit S1P degradation. Test articles (1×10-9-1×10^-4 M) were assayed in duplicate or triplicate. After 18 hours, media was collected, an internal recovery standard (0.005 mL of 5×10^-7 M deuterated (d7) S1P in methanol) was added, the BSA was precipitated with trichloroacetic acid and the bound S1P extracted with methanol. S1P and S1P-d7 were measured by liquid chromatography mass spectrometry. Inhibitor potency at the human SPNS2 ortholog was determined by an analogous assay using U-937 cells, which endogenously express human SPNS2.

As usually defined, the pIC50 is the negative decadic logarithm of the IC50, by convention in mol/L.

pIC50: −log10 of the molar value. Structures can show the parent of a compound that is named as a salt.

Turning to `CCCCCCCCCCc1ccc(-c2noc(CC(O)CN3CCCCC3)n2)cc1` (stereo not shown) [Compound 6a, 1-(3-(4-decylphenyl)-1,2,4-oxadiazol-5-yl)-3-(piperidin-1-yl)propan-2-ol hydrochloride], the pIC50 was under 5.70.

For the molecule `CCCCCCCCCCc1ccc(-c2noc(C(=O)NCCN)n2)cc1` [Compound 16a, N-(2-aminoethyl)-3-(4-decylphenyl)-1,2,4-oxadiazole-5-carboxamide hydrochloride], the pIC50 is at least 5.70.

Take `CCCCCCCOc1ccc2cc(-c3noc([C@@H]4CCNC4)n3)ccc2c1` [Compound 5x, (R)-3-(6-(heptyloxy)naphthalen-2-yl)-5-(pyrrolidin-3-yl)-1,2,4-oxadiazole hydrochloride]: the pIC50 is under 5.70.

For `CCCCCCCCCCc1ccc(-c2noc(C(=O)NCCCN)n2)cc1` [Compound 16b, N-(3-aminopropyl)-3-(4-decylphenyl)-1,2,4-oxadiazole-5-carboxamide hydrochloride], the pIC50 was under 5.70.

With `CCCCCCCCCCc1ccc(-c2noc(CNC(=O)[C@@H]3CCCCN3)n2)cc1` [Compound 9i, (S)—N-((3-(4-decylphenyl)-1,2,4-oxadiazol-5-yl)methyl)piperidine-2-carboxamide hydrochloride], the pIC50 is at least 5.70.

Turning to `CCCCCCCCCCc1ccc(-c2noc(CNC(=O)[C@H]3CNCCO3)n2)cc1` [Compound 9q, (R)—N-((3-(4-decylphenyl)-1,2,4-oxadiazol-5-yl)methyl)morpholine-2-carboxamide hydrochloride], the pIC50 was under 5.70.

For the molecule `CCCCCCCCCCc1ccc(-c2noc(CNC(=O)CN3CCNCC3)n2)cc1` [Compound 9c, N-((3-(4-decylphenyl)-1,2,4-oxadiazol-5-yl)methyl)-2-(piperazin-1-yl)acetamide hydrochloride], the pIC50 was under 5.70.

For the molecule `CCCCCCCCCCc1ccc(-c2noc(CNC(=O)CNC)n2)cc1` [Compound 9l, N-((3-(4-decylphenyl)-1,2,4-oxadiazol-5-yl)methyl)-2-(methylamino)acetamide hydrochloride], the pIC50 was at least 5.70.

As to `CCCCCCCCCCc1ccc(-c2noc(CC(O)CN(C)C)n2)cc1` (stereo not shown) [Compound 7b, 1-(3-(4-decylphenyl)-1,2,4-oxadiazol-5-yl)-3-(dimethylamino)propan-2-ol hydrochloride], the pIC50 is under 5.70.

On to `CCCCCCCCCCc1ccc(-c2noc(CNC(=O)[C@@H]3C[C@@H](F)CN3)n2)cc1` [Compound 9ae, (2S,4R)—N-((3-(4-decylphenyl)-1,2,4-oxadiazol-5-yl)methyl)-4-fluoropyrrolidine-2-carboxamide hydrochloride], for which the pIC50 is under 5.70.

Consider `CCCCCCCCCCc1ccc(-c2noc(CNC(=O)C[C@@H]3CCNC3)n2)cc1` [Compound 9k, (S)—N-((3-(4-decylphenyl)-1,2,4-oxadiazol-5-yl)methyl)-2-(pyrrolidin-3-yl)acetamide hydrochloride], for which the pIC50 is at least 5.70.

Regarding `CCCCCCCCCCc1ccc(-c2noc(CNC(=O)[C@@H](N)[C@@H](C)CC)n2)cc1` [Compound 9n, (2S,3S)-2-amino-N-((3-(4-decylphenyl)-1,2,4-oxadiazol-5-yl)methyl)-3-methylpentanamide hydrochloride], the pIC50 is under 5.70.

For the molecule `CCCCNC(=O)c1ccc(-c2noc(CCCN)n2)cc1` [Compound 13b, 4-(5-(3-aminopropyl)-1,2,4-oxadiazol-3-yl)-N-butylbenzamide hydrochloride], the pIC50 is under 5.70.

Take `CCCCCCCCCCc1ccc(-c2noc(C(Cl)CCN)n2)cc1` (racemic) [Compound 5k, (±)-3-chloro-3-(3-(4-decylphenyl)-1,2,4-oxadiazol-5-yl)propan-1-amine hydrochloride]: the pIC50 is under 5.70.

As for `CCCCCCCCCCc1ccc(-c2noc(CCCN3CCCC3)n2)cc1` [Compound 6d, 3-(4-decylphenyl)-5-(3-(pyrrolidin-1-yl)propyl)-1,2,4-oxadiazole hydrochloride], the pIC50 was under 5.70.

For `CCCCCCCCCCc1ccc(-c2noc(CNC(=O)[C@@H]3CCNC3)n2)cc1` [Compound 9j, (R)—N-((3-(4-decylphenyl)-1,2,4-oxadiazol-5-yl)methyl)pyrrolidine-3-carboxamide hydrochloride], the pIC50 is at least 5.70.

Regarding `CCCCCCCCCCc1ccc(-c2noc(CC(CN)OC(C)=O)n2)cc1` (stereo not shown) [Compound 5n, 1-amino-3-(3-(4-decylphenyl)-1,2,4-oxadiazol-5-yl)propan-2-yl acetate hydrochloride], the pIC50 was under 5.70.

As for `CCCCCCCCCCc1ccc(-c2noc(CCCN)n2)cc1` [Compound 5e, 3-(3-(4-decylphenyl)-1,2,4-oxadiazol-5-yl)propan-1-amine 2,2,2-trifluoroacetate], the pIC50 is at least 5.70.

As for `CCCCCCCCCCc1ccc(-c2noc(CNC(=O)[C@@H]3CCCNC3)n2)cc1` [Compound 9ag, (R)—N-((3-(4-decylphenyl)-1,2,4-oxadiazol-5-yl)methyl)piperidine-3-carboxamide hydrochloride], the pIC50 is at least 5.70.

With `CCCCCCCCCCc1ccc(-c2noc(CNC(=O)C[C@@H]3CCCNC3)n2)cc1` [Compound 9o, (S)—N-((3-(4-decylphenyl)-1,2,4-oxadiazol-5-yl)methyl)-2-(piperidin-3-yl)acetamide hydrochloride], the pIC50 is under 5.70.

As for `CCCCCCCCCCc1ccc(-c2noc([C@@H](N)CCN)n2)cc1` [Compound 19c, (S)-1-(3-(4-decylphenyl)-1,2,4-oxadiazol-5-yl)propane-1,3-diamine dihydrochloride], the pIC50 is at least 5.70.

For `CCCCCCCCCCc1ccc(-c2noc([C@@H]3CCN(C(=O)[C@@H](N)CO)C3)n2)cc1` [Compound 9aj], the negative logarithm of the IC50 (pIC50) is under 5.70.

`CCCCCCCCCCc1ccc(-c2noc(CCNC(=O)CN)n2)cc1` [Compound 9h, 2-amino-N-(2-(3-(4-decylphenyl)-1,2,4-oxadiazol-5-yl)ethyl)acetamide hydrochloride]: the pIC50 is at least 5.70.

In the case of `CCCCCCCCCCc1ccc(-c2noc(CNC(=O)C[C@@H](O)CN)n2)cc1` [Compound 9y, (R)-4-amino-N-((3-(4-decylphenyl)-1,2,4-oxadiazol-5-yl)methyl)-3-hydroxybutanamide hydrochloride], the pIC50 is under 5.70.

As for `CCCCCCCCCCc1ccc(-c2noc(CNC(=O)C3CCNCC3)n2)cc1` [Compound 9p, N-((3-(4-decylphenyl)-1,2,4-oxadiazol-5-yl)methyl)piperidine-4-carboxamide hydrochloride], the pIC50 was under 5.70.

For the molecule `CCCCCCCCCCc1ccc(-c2noc(CNC(=O)CCCN)n2)cc1` [Compound 9d, 4-amino-N-((3-(4-decylphenyl)-1,2,4-oxadiazol-5-yl)methyl)butanamide hydrochloride], the pIC50 is at least 5.70.

As to `CCCCCCCCCCc1ccc(-c2noc(CC[C@@H](N)C(=O)O)n2)cc1` [Compound 5y, (R)-2-amino-4-(3-(4-decylphenyl)-1,2,4-oxadiazol-5-yl)butanoic acid hydrochloride], the pIC50 is under 5.70.

Take `CCCCCCCCCCc1ccc(-c2noc(CNC(=O)CCCCN)n2)cc1` [Compound 9g, 5-amino-N-((3-(4-decylphenyl)-1,2,4-oxadiazol-5-yl)methyl)pentanamide hydrochloride]: the negative logarithm of the IC50 (pIC50) is at least 5.70.
